Measured values from patent US20250066367A1, “Pyrimidine-Annulated Triazole Derivatives and Their Use in Platelet Aggregation Inhibition” (BEIJING HONGHUI MEDITECH CO., LTD., priority 2021, published 2025).
Read-outs that look alike come from different tables or passages of the source.

Target: human P2Y12 receptor (Homo sapiens, UniProt Q9H244)
Test: Inhibition study in human P2Y12 receptor transfected CHO cells (cAMP, LANCE Ultra cAMP Kit)
Assay type: cell-based
Procedure: A CHO cell line which stably expresses human P2Y12 receptors was used in the study of the inhibitory effect of the compounds of the disclosure. (The cell line was constructed by Beijing Ion Channel Explorer Co.) The hP2Y12-CHO Cells were cultured in Ham's F-12 medium (Ham's F-12 Medium: +10% FBS +200 μg/ml Hygromycin B) and incubated at 37° C. under 5% CO2. The poor culture medium was removed, and the cells were washed with PBS. Then 1 mL trypsin solution was added to digest/detach the cells. The culture dish was incubated at 37° C. for 2 minutes. As soon as the cells were detached, 5 mL 37° C. pre-warmed complete medium was added. Cell suspension was transferred into a sterile pipet, the cells aggregates were dissociated by a gentle homogenization. The cell suspension was transferred into a sterile tube, and centrifuged at 1000 rpm for 5 minutes; In order to maintain the physiological activity of cells, the degree of cell fusion was controlled at about 80%.
After cell counting, the cells were cultured in 384-well plate. The test compounds were serially diluted 5-fold from 10000 nM for 10 concentrations and in 3 replicates. Ticagrelor was used as the reference compound and 2-MeSADP as the inducer. After the incubation for 15 min at 37° C., forskolin buffer was added to all wells to induce the production of cAMP. The plate was centrifuged at 1000 rpm for 1 minute, followed by incubation at 37° C. for 30 min. After lysis, the cAMP expression was quantified using PerkinElmer's LANCE® Ultra cAMP Kit method.

[1] = hP2Y12-CHO cells, 2-MeSADP as inducer, forskolin-induced cAMP, read-out: Inbibition of P2Y12 IC50

human P2Y12 receptor, sequence (Q9H244 whole entry): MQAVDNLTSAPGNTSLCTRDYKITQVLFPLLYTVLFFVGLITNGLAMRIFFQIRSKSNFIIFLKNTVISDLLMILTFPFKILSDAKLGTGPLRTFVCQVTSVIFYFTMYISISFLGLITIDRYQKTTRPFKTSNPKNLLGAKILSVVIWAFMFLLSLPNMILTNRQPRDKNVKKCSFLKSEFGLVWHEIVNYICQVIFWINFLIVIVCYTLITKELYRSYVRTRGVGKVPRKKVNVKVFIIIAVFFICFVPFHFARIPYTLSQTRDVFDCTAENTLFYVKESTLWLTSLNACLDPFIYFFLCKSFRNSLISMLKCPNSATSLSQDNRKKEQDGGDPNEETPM

IC50 [1]	IC50	SMILES
< 50 nM		CCCSc1nc(N[C@@H]2C[C@H]2c2ccc(F)c(F)c2)c2nnn([C@@H]3C[C@H](CO)O[C@H]3CO)c2n1 [Compound 19, ((2R,3R,5R)-3-(7-(((1R,2S)-2-(3,4-difluorophenyl)cyclopropyl)amino)-5-(propylthio)-3H-[1,2,3]triazolo[4,5-d]pyrimidin-3-yl)tetrahydrofuran-2,5-diyl)dimethanol]
< 50 nM		CCCSc1nc(N[C@@H]2C[C@H]2c2ccc(F)c(F)c2)c2nnn([C@@H]3C[C@H](C(=O)O)O[C@H]3CO)c2n1 [Compound 42, (2R,4R,5R)-4-(7-(((1R,2S)-2-(3,4-difluorophenyl)cyclopropyl)amino)-5-(propylthio)-3H-[1,2,3]triazolo[4,5-d]pyrimidin-3-yl)-5-(hydroxymethyl)tetrahydrofuran-2-carboxylic acid]
250 to 1250 nM		CCCSc1nc(N[C@@H]2C[C@H]2c2ccc(F)c(F)c2)c2nnn([C@@H]3C[C@H](CO)O[C@H]3COC)c2n1 [Compound 49, ((2R,4R,5R)-4-(7-(((1R,2S)-2-(3,4-difluorophenyl)cyclopropyl)amino)-5-(propylthio)-3H-[1,2,3]triazolo[4,5-d]pyrimidin-3-yl)-5-(methoxymethyl)tetrahydrofuran-2-yl)methanol]
> 1250 nM		CCCSc1nc(N[C@@H]2C[C@H]2c2ccc(F)c(F)c2)c2nnn([C@@H]3C[C@H](CCO)O[C@H]3CO)c2n1 [Compound 54, 2-((2R,4R,5R)-4-(7-(((1R,2S)-2-(3,4-difluorophenyl)cyclopropyl)amino)-5-(propylthio)-3H-[1,2,3]triazolo[4,5-d]pyrimidin-3-yl)-5-(hydroxymethyl)tetrahydrofuran-2-yl)ethan-1-ol]
250 to 1250 nM		CCCSc1nc(N[C@@H]2C[C@H]2c2ccc(F)c(F)c2)c2nnn([C@@H]3[C@@H](O)[C@H](CO)O[C@H]3CO)c2n1 [Compound 8, ((2R,3R,4R,5S)-3-(7-(((1R,2S)-2-(3,4-difluorophenyl)cyclopropyl)amino)-5-(propylthio)-3H-[1,2,3]triazolo[4,5-d]pyrimidin-3-yl)-4-hydroxytetrahydrofuran-2,5-diyl)dimethanol]
< 50 nM		CCCSc1nc(N[C@@H]2C[C@H]2c2ccc(F)c(F)c2)c2nnn([C@H]3CO[C@@H](CO)[C@@H]3O)c2n1 [Compound 27, (2S,3R,4S)-4-(7-(((1R,2S)-2-(3,4-difluorophenyl)cyclopropyl)amino)-5-(propylthio)-3H-[1,2,3]triazolo[4,5-d]pyrimidin-3-yl)-2-(hydroxymethyl)tetrahydrofuran-3-ol]
50 to 250 nM		CCCSc1nc(N[C@@H]2C[C@H]2c2ccc(F)c(F)c2)c2nnn([C@@H]3[C@H](F)[C@H](CO)O[C@H]3CO)c2n1 [Compound 39a, ((2R,3S,4S,5S)-3-(7-(((1R,2S)-2-(3,4-difluorophenyl)cyclopropyl)amino)-5-(propylthio)-3H-[1,2,3]triazolo[4,5-d]pyrimidin-3-yl)-4-fluorotetrahydrofuran-2,5-diyl)dimethanol]
250 to 1250 nM		CCC[S+]([O-])c1nc(N[C@@H]2C[C@H]2c2ccc(F)c(F)c2)c2nnn([C@@H]3C[C@H](C(=O)O)O[C@H]3CO)c2n1 (stereo partly drawn) [Compound 43, (2R,4R,5R)-4-(7-(((1R,2S)-2-(3,4-difluorophenyl)cyclopropyl)amino)-5-(propylsulfinyl)-3H-[1,2,3]triazolo[4,5-d]pyrimidin-3-yl)-5-(hydroxymethyl) tetrahydrofuran-2-carboxylic Acid]
	< 50 nM	CCCSc1nc(N[C@@H]2C[C@H]2c2ccc(F)c(F)c2)c2nnn([C@@H]3C[C@H](OCCO)[C@@H](O)[C@H]3O)c2n1 [Ticagrelor, reference compound]
50 to 250 nM		CCCSc1nc(N[C@@H]2C[C@H]2c2ccc(F)c(F)c2)c2nnn([C@@H]3[C@@H](F)[C@H](CO)O[C@H]3CO)c2n1 [Compound 39b, ((2R,3S,4R,5S)-3-(7-(((1R,2S)-2-(3,4-difluorophenyl)cyclopropyl)amino)-5-(propylthio)-3H-[1,2,3]triazolo[4,5-d]pyrimidin-3-yl)-4-fluorotetrahydrofuran-2,5-diyl)dimethanol]
< 50 nM		CCCSc1nc(N[C@@H]2C[C@H]2c2ccc(F)c(F)c2)c2nnn([C@H]3CO[C@@H](CO)C3)c2n1 [Compound 32, ((2R,4R)-4-(7-(((1R,2S)-2-(3,4-difluorophenyl)cyclopropyl)amino)-5-(propylthio)-3H-[1,2,3]triazolo[4,5-d]pyrimidin-3-yl)tetrahydrofuran-2-yl)methanol]
